Measurements: US9999690B2, “Labeled compounds and methods of imaging, diagnosing cartilage disorders and diseases, and monitoring cartilage health using labeled and unlabeled compounds” (Perosphere Inc., priority 2013, dated 2018)

Experiment: Tissue distribution of radioactivity by Quantitative Whole-Body Autoradiography (QWBA), Group 4
Format: in vivo
Details: rat
Procedure: A study was conducted to determine the pharmacokinetics, rates and routes of excretion with mass baseline and tissue distribution of radioactivity, after a single intravenous dose administration of formula XIII (also referred to as [^14C]DAP) was administered to the rats by tail vein intravenous injection at a
The study was conducted on 19 male rats divided into 4 groups. The first group of 6 rats was used for blood collection (Group 1); the second group of 4 rats was used for urine, feces, cage rinses and wipes and carcasses collection (Group 2); the third group of 4 rats was used for expired air collection (Group 3); the fourth group of 5 rats was used for terminal blood/serum and tissue distribution by Quantitative Whole-Body Autoradiography (QWBA) (Group 4).
For Group 4, formula XIII (QWBA was run at 1, 8, 12, 24 and 72 hours post dose. After terminal blood collection, each euthanized animal was frozen in a hexane/dry ice bath and embedded in a 2% carboxymethylcellulose matrix according to MPI Research SOP ADME-112. The embedded carcasses were sectioned according to MPI Research SOP ADME-113 on a Leica CM3600 Cyromacrotome set to maintain −10 to −30° C. At least four fortified quality control standards of known radioactive concentration were placed into the frozen block prior to sectioning and used for section thickness quality control. The quality control standards were sectioned under the same conditions as the specimen. The intrasection and intersection variation of collected sections were determined by analyzing the quality control standards. Section variation must be less than 20% for quantitative analysis. Sections that were approximately 40μm thick were taken in the sagittal plane. Appropriate sections selected at various levels of interest in the block were collected to encompass the following tissues, organs, and biological fluids, where possible: adrenal gland, bladder (urinary) and contents (urine), blood (cardiac), bone, bone marrow, brain, eye, fat (brown), fat (white), heart, kidney, large intestine/cecum and contents, liver, lung, muscle, pancreas, prostate, salivary glands, skin, small intestine and contents, spleen, stomach and contents, testes, thymus, thyroid, mesenteric lymph nodes, and epididymis. A set of sections were mounted, exposed to phosphor imaging screens and scanned using the Storm 860 image acquisition system according to MPI Research SOP ADME-112. Quantification, relative to the calibration standards, were performed by image densitometry using MCID™ image analysis software according to MPI Research SOP ADME-114. A standard curve was constructed from the integrated response (MDC/mm2) and the nominal concentrations of the [^14C]Glucose calibration standards. Relative error should be less than 0.5 for each point on the curve. The concentrations of radioactivity were expressed as μCi/g and were converted to μg or ng-equivalents of DAP per gram of sample (μg- or ng-eq/g) using the specific activity of administered [^14C]DAP dose formulation. A lower limit of quantification (LLOQ) was applied to the data. The LLOQ was determined using the radioactive concentration of the lowest calibration standard used to generate a calibration curve divided by the specific activity of the dose formulation (μCi/ug). Artifacts, such as those produced by dislodged contents of the alimentary canal, were excluded from analysis during image analysis.

Which “distribution to cartilage and tissues (autoradiograph)” value (1 hour post dose, FIG. 1) does the source give for [2H]C1([2H])N(CCCNC(=O)[C@@H](N)CCCNC(=N)N)C([2H])([2H])C([2H])([2H])N(CCCNC(=O)[C@@H](N)CCCNC(=N)N)C1([2H])[2H] [formula XIII] here?
The value was “distribute very well to cartilage and tissues”.

What about the “localization in cartilage and tissues (autoradiograph)” value (after 8 hours, FIG. 2) of the same molecule?
The value was “no longer localized in all of the regions identifiable in FIG. 1”.

What about the “Concentration of Radioactivity in Bone marrow” value (“Concentration … in Bone marrow” for short) (single IV 2 mg/kg, 1 Hour) of the same molecule?
Its value is 6820 ng Equivalents [^14C]DAP/g.

And the “Concentration of Radioactivity in Cartilage” value (“Concentration … in Cartilage” for short) (single IV 2 mg/kg, 1 Hour)?
Its value is 62602 ng Equivalents [^14C]DAP/g.

And the “Concentration of Radioactivity in Kidney” value (single IV 2 mg/kg, 1 Hour)?
The value was 51966 ng Equivalents [^14C]DAP/g.

What about the “Concentration of Radioactivity in Kidney (cortex)” value (shortened to “Concentration … (cortex)”) (single IV 2 mg/kg, 1 Hour) of the same molecule?
Its value is 55358 ng Equivalents [^14C]DAP/g.

What about the “Concentration of Radioactivity in Kidney (medulla)” value (“Concentration … (medulla)” below) (single IV 2 mg/kg, 1 Hour) of the same molecule?
Its value is 19308 ng Equivalents [^14C]DAP/g.

And the “Concentration of Radioactivity in Large intestinal contents” value (single IV 2 mg/kg, 1 Hour)?
The value was “BLQ (Below limit of quantitation (<172 ng equivalents [^14C]PER977/g))”.

What about the “Concentration of Radioactivity in Liver” value (single IV 2 mg/kg, 1 Hour) of the same molecule?
Its value is 6377 ng Equivalents [^14C]DAP/g.

And the “Concentration of Radioactivity in Small intestine” value (shortened to “Concentration … in Small intestine”) (single IV 2 mg/kg, 1 Hour)?
The value was 6838 ng Equivalents [^14C]DAP/g.

What about the “Concentration of Radioactivity in Thymus” value (single IV 2 mg/kg, 1 Hour) of the same molecule?
Its value is 10420 ng Equivalents [^14C]DAP/g.

And the “Concentration of Radioactivity in Urinary bladder” value (single IV 2 mg/kg, 1 Hour)?
Its value is 26725 ng Equivalents [^14C]DAP/g.

And the “Concentration of Radioactivity in Urine” value (single IV 2 mg/kg, 1 Hour)?
Its value is 195176 ng Equivalents [^14C]DAP/g.

What about the “Concentration … in Bone marrow” value (single IV 2 mg/kg, 8 Hours) of the same molecule?
The value was 5524 ng Equivalents [^14C]DAP/g.

What about the “Concentration … in Cartilage” value (single IV 2 mg/kg, 8 Hours) of the same molecule?
The value was 13038 ng Equivalents [^14C]DAP/g.

And the “Concentration of Radioactivity in Kidney” value (single IV 2 mg/kg, 8 Hours)?
The value was 43380 ng Equivalents [^14C]DAP/g.

And the “Concentration … (cortex)” value (single IV 2 mg/kg, 8 Hours)?
The value was 45541 ng Equivalents [^14C]DAP/g.

What about the “Concentration … (medulla)” value (single IV 2 mg/kg, 8 Hours) of the same molecule?
Its value is 3454 ng Equivalents [^14C]DAP/g.

What about the “Concentration of Radioactivity in Large intestinal contents” value (single IV 2 mg/kg, 8 Hours) of the same molecule?
The value was 510 ng Equivalents [^14C]DAP/g.

What about the “Concentration of Radioactivity in Liver” value (single IV 2 mg/kg, 8 Hours) of the same molecule?
The value was 3150 ng Equivalents [^14C]DAP/g.

What about the “Concentration … in Small intestine” value (single IV 2 mg/kg, 8 Hours) of the same molecule?
The value was 6643 ng Equivalents [^14C]DAP/g.

What about the “Concentration of Radioactivity in Thymus” value (single IV 2 mg/kg, 8 Hours) of the same molecule?
Its value is 15093 ng Equivalents [^14C]DAP/g.

What about the “Concentration of Radioactivity in Urinary bladder” value (single IV 2 mg/kg, 8 Hours) of the same molecule?
The value was 1429 ng Equivalents [^14C]DAP/g.

What about the “Concentration of Radioactivity in Urine” value (single IV 2 mg/kg, 8 Hours) of the same molecule?
Its value is 8374 ng Equivalents [^14C]DAP/g.

What about the “Concentration … in Bone marrow” value (single IV 2 mg/kg, 12 Hours) of the same molecule?
The value was 4948 ng Equivalents [^14C]DAP/g.

What about the “Concentration … in Cartilage” value (single IV 2 mg/kg, 12 Hours) of the same molecule?
Its value is 7749 ng Equivalents [^14C]DAP/g.

What about the “Concentration of Radioactivity in Cerebellum” value (single IV 2 mg/kg, 12 Hours) of the same molecule?
Its value is “BLQ (Below limit of quantitation (<172 ng equivalents [^14C]PER977/g))”.

And the “Concentration of Radioactivity in Cerebrum” value (single IV 2 mg/kg, 12 Hours)?
The value was “BLQ (Below limit of quantitation (<172 ng equivalents [^14C]PER977/g))”.

What about the “Concentration of Radioactivity in Gastric mucosa” value (single IV 2 mg/kg, 12 Hours) of the same molecule?
Its value is 2118 ng Equivalents [^14C]DAP/g.

What about the “Concentration of Radioactivity in Kidney” value (single IV 2 mg/kg, 12 Hours) of the same molecule?
Its value is 40930 ng Equivalents [^14C]DAP/g.

What about the “Concentration … (cortex)” value (single IV 2 mg/kg, 12 Hours) of the same molecule?
Its value is 48959 ng Equivalents [^14C]DAP/g.

What about the “Concentration … (medulla)” value (single IV 2 mg/kg, 12 Hours) of the same molecule?
Its value is 2981 ng Equivalents [^14C]DAP/g.

What about the “Concentration of Radioactivity in Large intestinal contents” value (single IV 2 mg/kg, 12 Hours) of the same molecule?
The value was 4752 ng Equivalents [^14C]DAP/g.

And the “Concentration of Radioactivity in Liver” value (single IV 2 mg/kg, 12 Hours)?
Its value is 3330 ng Equivalents [^14C]DAP/g.

What about the “Concentration of Radioactivity in Medulla” value (single IV 2 mg/kg, 12 Hours) of the same molecule?
Its value is “BLQ (Below limit of quantitation (<172 ng equivalents [^14C]PER977/g))”.

What about the “Concentration … in Small intestine” value (single IV 2 mg/kg, 12 Hours) of the same molecule?
Its value is 9975 ng Equivalents [^14C]DAP/g.

And the “Concentration of Radioactivity in Spinal cord” value (single IV 2 mg/kg, 12 Hours)?
The value was “BLQ (Below limit of quantitation (<172 ng equivalents [^14C]PER977/g))”.

What about the “Concentration of Radioactivity in Stomach contents” value (single IV 2 mg/kg, 12 Hours) of the same molecule?
The value was “BLQ (Below limit of quantitation (<172 ng equivalents [^14C]PER977/g))”.

What about the “Concentration of Radioactivity in Thymus” value (single IV 2 mg/kg, 12 Hours) of the same molecule?
The value was 14584 ng Equivalents [^14C]DAP/g.
